One may read the GI50 as the concentration that inhibits growth by half.

The results in this text go back to ChEMBL document CHEMBL1201862, “PubChem BioAssay data set” (2004).

Some test systems named below: T47D; HT-29; CCRF-CEM; SW-620; SK-MEL-5; MDA-N; KM12; EKVX; SNB-75; RXF 393; OVCAR-4; UACC-62; ACHN; SN12C; SF-539; SK-MEL-2; Malme-3M; Hs-578T; COLO 205; A498.
Common to all, as to assay: DTP human tumour cell line panel, 48 h

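Cultured in 96-well plates, cells were exposed to test compound for 48 hours across five concentrations. GI50: concentration for 50% inhibition of growth.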 Activity calls are given as the source filed them. Rule as the data show it: active = GI50 up to about 1.1 µM and inactive = higher.

Turning to `CC1OC(OC2C[C@](O)(C(=O)CF)Cc3c(O)c4c(c(O)c32)C(=O)c2ccccc2C4=O)CC(N)C1O` (stereo not given in full), the GI50 was 0.0106 µM (active) in the assay on T47D; < 0.0156 µM (active) with HT-29; < 0.01 µM (active) with CCRF-CEM; < 0.0116 µM (active) in the assay on SW-620; < 0.0113 µM (active) with SK-MEL-5; 0.108 µM (active) with MDA-N. Further, the GI50 with KM12 was 0.0305 µM (active); in the assay on EKVX, 0.507 µM (active); in the assay on SNB-75 it was 0.0161 µM (active); with RXF 393 it was 0.0637 µM (active); with OVCAR-4, 0.152 µM (active); in the assay on UACC-62, < 0.0104 µM (active). The GI50 in the assay with ACHN was < 0.01 µM (active); in the assay with SN12C, < 0.01 µM (active); with SF-539, 0.0561 µM (active); with SK-MEL-2, 0.168 µM (active); in the assay on Malme-3M, < 0.0109 µM (active); in the assay with Hs-578T it was 0.0103 µM (active). The GI50 in the assay on COLO 205 is 0.0296 µM (active); in the assay with A498, 0.233 µM (active).

Take `CCOC(=O)CO/N=C1/C(=C2/C(=O)Nc3ccccc32)Nc2ccccc21`: the GI50 is 2.29 µM (inactive) in the assay with T47D; > 100 µM (inactive) in the assay with HT-29; > 100 µM (inactive) in the assay on CCRF-CEM; 34.7 µM (inactive) with SW-620; 49.5 µM (inactive) in the assay on SK-MEL-5; > 100 µM (inactive) with MDA-N. In addition, the GI50 is 0.0955 µM (active) in the assay with KM12; 13.4 µM (inactive) in the assay with EKVX; 3.39 µM (inactive) with SNB-75; 7.82 µM (inactive) with RXF 393; 3.24 µM (inactive) in the assay with OVCAR-4; 48.6 µM (inactive) with UACC-62. Also, the GI50 was 67 µM (inactive) in the assay on ACHN; 31.3 µM (inactive) in the assay with SN12C; 41.1 µM (inactive) with SF-539; 39.6 µM (inactive) in the assay on SK-MEL-2; > 100 µM (inactive) with Malme-3M; 36.2 µM (inactive) in the assay with Hs-578T. For the same molecule, the GI50 with COLO 205 is > 100 µM (inactive); with A498, 15.1 µM (inactive).

With `Cc1cc(C)c2c(=O)n(CC(O)CN3CCN(c4ncccn4)CC3)sc2n1` (stereo not given), the GI50 is 23.4 µM (inactive) with T47D; 16.1 µM (inactive) in the assay with HT-29; 5.79 µM (inactive) in the assay with CCRF-CEM; 19.5 µM (inactive) with SW-620; 20.5 µM (inactive) in the assay on SK-MEL-5; 16 µM (inactive) in the assay with MDA-N. Also, the GI50 in the assay with KM12 is 20.8 µM (inactive); in the assay on EKVX, 16 µM (inactive); with SNB-75 it was 15.1 µM (inactive); with RXF 393 it was 17.5 µM (inactive); in the assay with OVCAR-4 it was 18.6 µM (inactive); with UACC-62 it was 17.8 µM (inactive). The GI50 was 18.4 µM (inactive) in the assay with ACHN; 17.8 µM (inactive) in the assay with SN12C; 17.8 µM (inactive) with SF-539; 18.7 µM (inactive) in the assay with SK-MEL-2; 20.1 µM (inactive) with Malme-3M; 21.4 µM (inactive) with Hs-578T. Also, the GI50 with COLO 205 was 19 µM (inactive); in the assay with A498, 17.4 µM (inactive).

Regarding `O=C1c2c(Br)sc(Br)c2[C@H]2NC(=S)O[C@@H]12`, the GI50 was 21.8 µM (inactive) in the assay with T47D; 14.5 µM (inactive) in the assay with HT-29; 2.15 µM (inactive) in the assay on CCRF-CEM; 3.18 µM (inactive) in the assay with SW-620; 15.8 µM (inactive) in the assay with SK-MEL-5; 16 µM (inactive) in the assay on MDA-N. The GI50 in the assay with KM12 is 17.9 µM (inactive); in the assay with EKVX, 20.4 µM (inactive); with SNB-75, 19.1 µM (inactive); in the assay on RXF 393, 13.3 µM (inactive); in the assay with OVCAR-4, 17.1 µM (inactive); with UACC-62, 15.7 µM (inactive). For the same molecule, the GI50 is 17.7 µM (inactive) in the assay with ACHN; 17.6 µM (inactive) with SN12C; 17.9 µM (inactive) in the assay on SF-539; 17.4 µM (inactive) in the assay on SK-MEL-2; 15.7 µM (inactive) with Malme-3M; 23.2 µM (inactive) in the assay with Hs-578T. Moreover, the GI50 in the assay on COLO 205 was 13.4 µM (inactive); in the assay on A498, 23.5 µM (inactive).

Take `Clc1c2ncccc2cc2nn[nH]c12`: the GI50 is > 100 µM (inactive) with T47D; > 100 µM (inactive) in the assay with HT-29; 17.3 µM (inactive) with CCRF-CEM; > 100 µM (inactive) in the assay on SW-620; > 100 µM (inactive) in the assay with SK-MEL-5; > 100 µM (inactive) in the assay on MDA-N. Further, the GI50 is > 100 µM (inactive) with KM12; > 100 µM (inactive) in the assay with EKVX; 28.5 µM (inactive) in the assay with SNB-75; > 100 µM (inactive) in the assay on RXF 393; > 100 µM (inactive) in the assay on OVCAR-4; > 100 µM (inactive) in the assay with UACC-62. In addition, the GI50 is > 100 µM (inactive) with ACHN; > 100 µM (inactive) with SN12C; > 100 µM (inactive) in the assay on SF-539; > 100 µM (inactive) in the assay on SK-MEL-2; 79.3 µM (inactive) in the assay with Malme-3M; 93.8 µM (inactive) in the assay on Hs-578T. For the same molecule, the GI50 in the assay on COLO 205 and in the assay with A498 was > 100 µM (inactive) throughout.

For `COC1=CCC2=C(CCN(C(=O)C3CCC3)C2Cc2ccc(OC)c(O)c2)C1` (stereo not given), the GI50 in the assay on T47D was 19.4 µM (inactive); with HT-29, 20.3 µM (inactive); with CCRF-CEM it was 21.8 µM (inactive); in the assay on SW-620, 12.8 µM (inactive); in the assay with SK-MEL-5, 8.34 µM (inactive); in the assay with MDA-N, 2.7 µM (inactive). Further, the GI50 in the assay with KM12 is 6.18 µM (inactive); in the assay with EKVX it was 25.7 µM (inactive); with SNB-75, 10.7 µM (inactive); in the assay with RXF 393, 4.68 µM (inactive); in the assay on OVCAR-4, 23 µM (inactive); in the assay on UACC-62, 20.4 µM (inactive). For the same molecule, the GI50 with ACHN was 35.4 µM (inactive); in the assay on SN12C, 19.5 µM (inactive); with SF-539, 30.5 µM (inactive); with SK-MEL-2 it was 24.2 µM (inactive); in the assay on Malme-3M it was 26.6 µM (inactive); in the assay with Hs-578T it was 14.6 µM (inactive). The GI50 with COLO 205 is 16 µM (inactive); in the assay on A498 it was 19.4 µM (inactive).

Consider `NC(=O)NO` [HYDROXYUREA], for which the GI50 with T47D was 1490 µM (inactive); with HT-29, 605 µM (inactive); with CCRF-CEM, 50.4 µM (inactive); in the assay with SW-620, 1090 µM (inactive); with SK-MEL-5 it was 507 µM (inactive); in the assay with MDA-N, 1940 µM (inactive). For the same molecule, the GI50 in the assay on KM12 is 902 µM (inactive); with EKVX it was 1790 µM (inactive); with SNB-75, 817 µM (inactive); in the assay on RXF 393, 857 µM (inactive); in the assay with OVCAR-4 it was 1850 µM (inactive); in the assay with UACC-62 it was 291 µM (inactive). Besides, the GI50 in the assay with ACHN is 108 µM (inactive); in the assay on SN12C, 738 µM (inactive); with SF-539, 315 µM (inactive); in the assay on SK-MEL-2 it was 2000 µM (inactive); with Malme-3M, 1170 µM (inactive); in the assay with Hs-578T, 740 µM (inactive). In addition, the GI50 in the assay on COLO 205 is 1740 µM (inactive); in the assay on A498, 693 µM (inactive).
